Laboratory results: patent publication US8129371B2, “Thienopyrimidine and pyrazolopyrimidine compounds and their use as mTOR kinase and PI3 kinase inhibitors” (Wyeth LLC, priority 2007, dated 2012)

Assays:
Human mTOR (FLAG-TOR) = biological target: T1, Human mTOR (FLAG-TOR) (Homo sapiens, UniProt P42345); assay: Human mTOR kinase assay with purified enzyme, DELFIA format; assay type: biochemical
T1 construct: FLAG
Summary of the method: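 DELFIA readout: Eu-anti-P(T389)-S6K antibody (40 ng/mL, 1 h) on captured His6-S6K from the stopped reaction. Kinase step used purified FLAG-tagged human mTOR with test compound in HEPES (pH 7.4)/MnCl2/DTT buffer, 2 h at room temperature (linear 1–6 h), terminated by EDTA/EGTA.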

breast line MDA468 = assay: In vitro cell culture growth assay (MTS), MDA468; assay type: cell-based; conditions: Homo sapiens, 72 h, MDA468 cells, three days after drug treatment
Summary of the method: (§1)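 Viable cell density is assessed three days after inhibitor addition via MTS conversion, normalised to vehicle-treated cells.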

prostate line LNCap = assay: In vitro cell culture growth assay (MTS), LNCap; assay type: cell-based; conditions: Homo sapiens, LNCaP, 72 h, LNCap cells, three days after drug treatment
Summary of the method: as §1

PI3K [1] = biological target: T2, PI3K (Homo sapiens, UniProt P42336); assay: Fluorescence polarization assay for PI3K; assay type: biochemical; conditions: PI3 Kinase α; read-out: PI3 Kinase α IC50
T2 construct: PI3 Kinase α IC50; other: PI3 Kinase α; other: PI3 Kinase α isoform, fluorescence polarization
Summary of the method: (§2)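 Fluorescence-polarization competition readout: after 30–60 min of PIP2/ATP turnover in 1% DMSO, a stop mix with GST-GRP (70 nM) and red probe (10 nM) was added.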

PI3K [2] = biological target: T3, PI3K (Homo sapiens, UniProt P48736); assay: Fluorescence polarization assay for PI3K; assay type: biochemical; conditions: PI3 Kinase γ; read-out: PI3 Kinase γ IC50
T3 construct: PI3 Kinase γ IC50; other: PI3 Kinase γ; other: PI3 Kinase γ isoform, fluorescence polarization
Summary of the method: as §2

T3 sequence (P48736 whole entry, canonical isoform): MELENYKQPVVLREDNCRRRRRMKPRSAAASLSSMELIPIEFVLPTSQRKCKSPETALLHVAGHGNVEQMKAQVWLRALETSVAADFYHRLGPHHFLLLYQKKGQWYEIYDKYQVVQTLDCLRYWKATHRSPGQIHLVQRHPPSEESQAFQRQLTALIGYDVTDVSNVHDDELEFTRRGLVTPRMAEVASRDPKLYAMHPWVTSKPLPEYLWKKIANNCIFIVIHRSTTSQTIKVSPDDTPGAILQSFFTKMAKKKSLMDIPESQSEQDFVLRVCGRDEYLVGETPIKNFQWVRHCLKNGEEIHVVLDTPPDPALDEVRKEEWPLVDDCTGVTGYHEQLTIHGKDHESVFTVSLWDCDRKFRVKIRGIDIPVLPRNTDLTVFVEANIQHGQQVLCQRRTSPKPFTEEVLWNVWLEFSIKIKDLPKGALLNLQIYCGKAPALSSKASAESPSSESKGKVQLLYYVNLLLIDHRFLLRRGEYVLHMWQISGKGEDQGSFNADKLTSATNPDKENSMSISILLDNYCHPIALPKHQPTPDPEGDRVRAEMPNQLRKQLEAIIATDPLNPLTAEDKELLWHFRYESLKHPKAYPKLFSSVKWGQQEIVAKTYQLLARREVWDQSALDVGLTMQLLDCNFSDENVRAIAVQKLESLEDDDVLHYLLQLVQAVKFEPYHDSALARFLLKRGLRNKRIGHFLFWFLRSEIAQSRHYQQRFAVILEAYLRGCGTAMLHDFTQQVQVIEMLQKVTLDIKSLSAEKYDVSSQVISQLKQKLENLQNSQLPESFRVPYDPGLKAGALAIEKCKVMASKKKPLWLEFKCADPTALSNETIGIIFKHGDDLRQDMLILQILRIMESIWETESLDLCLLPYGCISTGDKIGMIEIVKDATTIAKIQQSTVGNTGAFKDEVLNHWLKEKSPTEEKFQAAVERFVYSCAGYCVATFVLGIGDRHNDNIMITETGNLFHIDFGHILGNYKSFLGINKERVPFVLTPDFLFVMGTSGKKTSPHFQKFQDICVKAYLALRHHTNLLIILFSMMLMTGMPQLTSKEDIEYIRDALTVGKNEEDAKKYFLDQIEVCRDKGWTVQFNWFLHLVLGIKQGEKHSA
T2 sequence (P42336 whole entry, canonical isoform): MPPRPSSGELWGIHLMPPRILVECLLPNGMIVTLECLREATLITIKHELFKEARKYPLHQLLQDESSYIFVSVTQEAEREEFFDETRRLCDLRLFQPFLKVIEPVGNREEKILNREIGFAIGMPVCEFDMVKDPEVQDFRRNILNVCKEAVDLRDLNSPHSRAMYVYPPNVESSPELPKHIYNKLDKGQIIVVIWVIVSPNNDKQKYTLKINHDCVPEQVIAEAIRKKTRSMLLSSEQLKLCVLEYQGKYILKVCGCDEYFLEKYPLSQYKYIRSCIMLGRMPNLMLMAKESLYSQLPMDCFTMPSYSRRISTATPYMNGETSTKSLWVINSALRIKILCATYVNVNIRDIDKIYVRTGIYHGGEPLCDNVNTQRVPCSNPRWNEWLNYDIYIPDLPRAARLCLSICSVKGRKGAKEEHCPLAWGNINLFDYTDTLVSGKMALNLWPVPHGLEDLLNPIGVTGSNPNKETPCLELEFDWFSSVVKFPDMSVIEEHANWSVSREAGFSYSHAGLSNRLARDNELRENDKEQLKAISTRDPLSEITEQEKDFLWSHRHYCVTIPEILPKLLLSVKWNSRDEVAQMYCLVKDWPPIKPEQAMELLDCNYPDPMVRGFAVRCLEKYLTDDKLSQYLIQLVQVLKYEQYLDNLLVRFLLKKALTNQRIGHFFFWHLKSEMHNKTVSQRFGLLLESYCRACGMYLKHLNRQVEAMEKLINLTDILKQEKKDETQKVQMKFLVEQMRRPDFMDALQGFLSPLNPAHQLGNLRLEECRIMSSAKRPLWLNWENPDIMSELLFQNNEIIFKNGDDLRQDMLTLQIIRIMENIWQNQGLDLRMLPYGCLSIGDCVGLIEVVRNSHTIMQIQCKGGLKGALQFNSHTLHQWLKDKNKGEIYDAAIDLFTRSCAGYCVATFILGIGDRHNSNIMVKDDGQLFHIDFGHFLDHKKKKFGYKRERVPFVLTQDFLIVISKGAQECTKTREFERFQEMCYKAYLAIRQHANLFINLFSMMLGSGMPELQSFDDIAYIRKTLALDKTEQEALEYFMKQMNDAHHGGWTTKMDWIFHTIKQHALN

SMILES | IC50 (Human mTOR (FLAG-TOR)) [nM] | IC50 (breast line MDA468) [nM] | IC50 (prostate line LNCap) [nM] | IC50 (PI3K [1]) [nM] | IC50 (PI3K [2]) [nM]
CC(C)(C)OC(=O)N1CCC(n2ncc3c(N4CC5CCC(C4)O5)nc(-c4ccc(NC(=O)Nc5ccncc5)cc4)nc32)CC1 [Example 25, tert-butyl 4-[4-(8-oxa-3-azabicyclo[3.2.1]oct-3-yl)-6-{4-[(pyridin-4-ylcarbamoyl)amino]phenyl}-1H-pyrazolo[3,4-d]pyrimidin-1-yl]piperidine-1-carboxylate] | 0.47 | 70 | 38 | 595 | 1640
CNC(=O)Nc1ccc(-c2nc(N3CC4CCC(C3)O4)c3cnn(C4CCN(CC(F)(F)F)CC4)c3n2)cc1 [Example 26, 1-methyl-3-(4-{4-(8-oxa-3-azabicyclo[3.2.1]oct-3-yl)-1-[1-(2,2,2-trifluoroethyl)piperidin-4-yl]-1H-pyrazolo[3,4-d]pyrimidin-6-yl}phenyl)urea] | 1.1 | 190 | 27 | 1280 | > 10000
CNC(=O)Nc1ccc(-c2nc(N3CC4CCC(C3)O4)c3cnn(C4CCN(Cc5cccnc5)CC4)c3n2)cc1 [Example 27, 1-methyl-3-(4-{4-(8-oxa-3-azabicyclo[3.2.1]oct-3-yl)-1-[1-(pyridin-3-ylmethyl)piperidin-4-yl]-1H-pyrazolo[3,4-d]pyrimidin-6-yl}phenyl)urea] | 0.47 | 27 | 0.8 | 677 | > 10000
CCNC(=O)Nc1ccc(-c2nc(N3CC4CCC(C3)O4)c3cnn(C4CCNCC4)c3n2)cc1 [Example 28, 1-ethyl-3-{4-[4-(8-oxa-3-azabicyclo[3.2.1]oct-3-yl)-1-piperidin-4-yl-1H-pyrazolo[3,4-d]pyrimidin-6-yl]phenyl}urea] | 1.8 | 1300 | 790 | 2160 | 9000
O=C(Nc1ccccc1)Nc1ccc(-c2nc(N3CC4CCC(C3)O4)c3cnn(C4CCNCC4)c3n2)cc1 [Example 29, 1-{4-[4-(8-oxa-3-azabicyclo[3.2.1]oct-3-yl)-1-piperidin-4-yl-1H-pyrazolo[3,4-d]pyrimidin-6-yl]phenyl}-3-phenylurea] | 2.3 | 280 | 100 | 273 | 2310
Oc1ccc(Nc2nc(N3CC4CCC(C3)O4)c3cnn(C4CCN(Cc5ccccc5)CC4)c3n2)cc1 [Example 30, 4-{[1-(1-benzylpiperidin-4-yl)-4-(8-oxa-3-azabicyclo[3.2.1]oct-3-yl)-1H-pyrazolo[3,4-d]pyrimidin-6-yl]amino}phenol] | 260 | 7600 | 2800 | 2450 | > 10000
CCNC(=O)Nc1ccc(-c2nc(N3CC4CCC(C3)O4)c3cnn(C4CCN(C(=O)OCC)CC4)c3n2)cc1 [Example 31, ethyl 4-[6-{4-[(ethylcarbamoyl)amino]phenyl}-4-(8-oxa-3-azabicyclo[3.2.1]oct-3-yl)-1H-pyrazolo[3,4-d]pyrimidin-1-yl]piperidine-1-carboxylate] | 0.36 | 70 | 0.8 | 1890 | 11000
CCOC(=O)N1CCC(n2ncc3c(N4CC5CCC(C4)O5)nc(-c4ccc(NC(=O)NCCF)cc4)nc32)CC1 [Example 32, ethyl 4-[6-(4-{[(2-fluoroethyl)carbamoyl]amino}phenyl)-4-(8-oxa-3-azabicyclo[3.2.1]oct-3-yl)-1H-pyrazolo[3,4-d]pyrimidin-1-yl]piperidine-1-carboxylate] | 0.33 | 210 | 9 | 3320 | 9500
CCOC(=O)N1CCC(n2ncc3c(N4CC5CCC(C4)O5)nc(-c4ccc(NC(=O)Nc5ccccc5)cc4)nc32)CC1 [Example 33, ethyl 4-[4-(8-oxa-3-azabicyclo[3.2.1]oct-3-yl)-6-{4-[(phenylcarbamoyl)amino]phenyl}-1H-pyrazolo[3,4-d]pyrimidin-1-yl]piperidine-1-carboxylate] | 0.36 | 18 | 0.9 | 215 | 4280
CCOC(=O)N1CCC(n2ncc3c(N4CC5CCC(C4)O5)nc(-c4ccc(NC(=O)Nc5cccnc5)cc4)nc32)CC1 [Example 34, ethyl 4-[4-(8-oxa-3-azabicyclo[3.2.1]oct-3-yl)-6-{4-[(pyridin-3-ylcarbamoyl)amino]phenyl}-1H-pyrazolo[3,4-d]pyrimidin-1-yl]piperidine-1-carboxylate] | 0.12 | 25 | < 0.8 | 314 | 2610
CCOC(=O)N1CCC(n2ncc3c(N4CC5CCC(C4)O5)nc(-c4ccc(NC(=O)Nc5ccncc5)cc4)nc32)CC1 [Example 35, ethyl 4-[4-(8-oxa-3-azabicyclo[3.2.1]oct-3-yl)-6-{4-[(pyridin-4-ylcarbamoyl)amino]phenyl}-1H-pyrazolo[3,4-d]pyrimidin-1-yl]piperidine-1-carboxylate] | 0.34 | 9 | < 0.8 | 291 | 1800
CCOC(=O)N1CCC(n2ncc3c(N4CC5CCC(C4)O5)nc(-c4ccc(NC(=O)NC5CCN(C)CC5)cc4)nc32)CC1 [Example 36, ethyl 4-[6-(4-{[(1-methylpiperidin-4-yl)carbamoyl]amino}phenyl)-4-(8-oxa-3-azabicyclo[3.2.1]oct-3-yl)-1H-pyrazolo[3,4-d]pyrimidin-1-yl]piperidine-1-carboxylate] | 26 | 4500 | 1200 | 6210 | 7620
CCOC(=O)N1CCC(n2ncc3c(N4CC5CCC(C4)O5)nc(-c4ccc(NC(=O)NC5CCN(C(=O)OC(C)(C)C)CC5)cc4)nc32)CC1 [Example 37, ethyl 4-{6-[4-({[1-(tert-butoxycarbonyl)piperidin-4-yl]carbamoyl}amino)phenyl]-4-(8-oxa-3-azabicyclo[3.2.1]oct-3-yl)-1H-pyrazolo[3,4-d]pyrimidin-1-yl}piperidine-1-carboxylate] | 37 | > 60000 | 1000 | 8620 | 7390
CCOC(=O)N1CCC(n2ncc3c(N4CC5CCC(C4)O5)nc(-c4ccc(NC(=O)NCCCNC)cc4)nc32)CC1 [Example 38, ethyl 4-{6-[4-({[3-(methylamino)propyl]carbamoyl}amino)phenyl]-4-(8-oxa-3-azabicyclo[3.2.1]oct-3-yl)-1H-pyrazolo[3,4-d]pyrimidin-1-yl}piperidine-1-carboxylate] | 5.3 | 7000 | 4400 | 1760 | 11000
CCOC(=O)N1CCC(n2ncc3c(N4CC5CCC(C4)O5)nc(-c4ccc(NC(=O)Nc5ccn[nH]5)cc4)nc32)CC1 [Example 39, ethyl 4-[4-(8-oxa-3-azabicyclo[3.2.1]oct-3-yl)-6-{4-[(1H-pyrazol-5-ylcarbamoyl)amino]phenyl}-1H-pyrazolo[3,4-d]pyrimidin-1-yl]piperidine-1-carboxylate] | 96 | 8000 | 2600 | 5700 | 8880
CCn1ncc2c(N3CC4CCC(C3)O4)nc(-c3ccc(NC(=O)NC)cc3)nc21 [Example 40, 1-{4-[1-ethyl-4-(8-oxa-3-azabicyclo[3.2.1]oct-3-yl)-1H-pyrazolo[3,4-d]pyrimidin-6-yl]phenyl}-3-methylurea] | 0.58 | 300 | 70 | 270 | > 10000
CCNC(=O)Nc1ccc(-c2nc(N3CC4CCC(C3)O4)c3cnn(CC)c3n2)cc1 [Example 41, 1-ethyl-3-{4-[1-ethyl-4-(8-oxa-3-azabicyclo[3.2.1]oct-3-yl)-1H-pyrazolo[3,4-d]pyrimidin-6-yl]phenyl}urea] | 0.47 | 80 | 16 | 1250 | 12000
CCn1ncc2c(N3CC4CCC(C3)O4)nc(-c3ccc(NC(=O)NCCF)cc3)nc21 [Example 42, 1-{4-[1-ethyl-4-(8-oxa-3-azabicyclo[3.2.1]oct-3-yl)-1H-pyrazolo[3,4-d]pyrimidin-6-yl]phenyl}-3-(2-fluoroethyl)urea] | 0.31 | 120 | 31 | 973 | > 10000
CCn1ncc2c(N3CC4CCC(C3)O4)nc(-c3ccc(NC(=O)NC4CC4)cc3)nc21 [Example 43, 1-cyclopropyl-3-{4-[1-ethyl-4-(8-oxa-3-azabicyclo[3.2.1]oct-3-yl)-1H-pyrazolo[3,4-d]pyrimidin-6-yl]phenyl}urea] | 0.4 | 250 | 52 | 1760 | > 10000
CCn1ncc2c(N3CC4CCC(C3)O4)nc(-c3ccc(NC(=O)NCCO)cc3)nc21 [Example 44, 1-{4-[1-ethyl-4-(8-oxa-3-azabicyclo[3.2.1]oct-3-yl)-1H-pyrazolo[3,4-d]pyrimidin-6-yl]phenyl}-3-(2-hydroxyethyl)urea] | 0.34 | 370 | 220 | 416 | 12000
